Measurements: PMC6977461 (Chemical Science, 2019)
Where two headings read alike, the source gives them in different places.

How the values were obtained:
[1] = molecular target: T1, mouse GLP-1 receptor (Mus musculus, UniProt O35659); experiment: cAMP production in βTC6 cells expressing GLP-1R endogenously (Method C2); assay type: cell-based; settings: for Potency (%), Table S1: from EC50 in βTC6 cAMP assay, footnote: compare to GLP-1-NH2 (2); for loss in potency relative to 3 (fold): figures for 6-8 match the βTC6 EC50 values of Table S1
T1 construct: βTC6 cells which express GLP-1R endogenously; host or cells: βTC6 cells
T1 sequence (O35659 22-463): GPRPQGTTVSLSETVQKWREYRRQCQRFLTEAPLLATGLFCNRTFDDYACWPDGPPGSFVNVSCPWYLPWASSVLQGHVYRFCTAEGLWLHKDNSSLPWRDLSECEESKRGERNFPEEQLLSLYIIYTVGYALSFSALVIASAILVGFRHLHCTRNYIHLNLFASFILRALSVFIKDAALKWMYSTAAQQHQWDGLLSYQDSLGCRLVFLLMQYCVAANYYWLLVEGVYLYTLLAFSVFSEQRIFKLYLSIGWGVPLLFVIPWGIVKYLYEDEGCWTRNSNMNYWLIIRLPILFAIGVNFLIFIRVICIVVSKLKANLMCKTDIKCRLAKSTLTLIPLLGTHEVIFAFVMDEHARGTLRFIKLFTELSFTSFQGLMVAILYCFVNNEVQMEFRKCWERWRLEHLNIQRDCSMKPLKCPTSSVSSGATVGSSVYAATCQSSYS
Protocol: (§1)  HEK-293T cells (Multispan inc., lot#.DC1267-062017) were suspended in cell culture media
(§2) (DMEM 1X + GlutaMAX (Gibco 31966-021)) complemented with FBS 10% (Sigma Aldrich
(§3)  βTC6 cells were suspended in HBSS buffer (Invitrogen) complemented with 20 mM HEPES (pH
(§4) In vitro pharmacology on HEK-293T cells (EC50: Method C1)
(§5) cells (Multispan inc., lot#.DC1267-062017) was determined by measuring their effects on cAMP
(§6) production using the HTRF detection method (performed by UREkA SARL). The cells were distributed
(§7) in 384-well microplates at a density of 1.0x10^4 cells/well. Stock solutions of the test compounds or the
(§8) reference agonist were prepared at a concentration of 1 mM in DMSO. Then, compounds to be tested
(§9) were diluted in cell culture media and transferred to the plate containing the cells to reach final assay

[2] = mouse plasma degradation assay (Methods MP1-MP3); assay type: in vitro ADME
Protocol: The oligomer was then diluted 1/50 with a solution of plasma/PBS pH 7.4 (1/1) to afford a final concentration of 5μM and incubated at 37°C. […] (t = 0 min was determined using the reaction without plasma). The samples were frozen at -80°C before analysis. […] The supernatant was analyzed by LC-MS. The time course of oligomer degradation was determined by integrating the area of the peak in the extracted ion chromatogram. […] The oligomer was then diluted 1/50 with a solution of plasma/PBS pH 7.4 (1/1) to afford a final concentration of 5μM and incubated at 37°C. […] The oligomer was then diluted 1/50 with a solution of plasma/PBS pH 7.4 (1/1) to afford a final concentration of 5μM and incubated at 37°C. […] Animals. […] A standard chow diet (RM1 (E) 801492, SDS) and tap water were provided ad libitum. All animal protocols done by Physiogenex S.A.S were reviewed and approved by the local (Comité […] national ([…]

[3] = molecular target: GLP-1R (Homo sapiens, UniProt P43220); experiment: cAMP production functional assay in HEK293 cells transfected with GLP-1R (Method C1); assay type: cell-based; parameters: host or cells: HEK-293T; settings: for EC50: HEK-293T cells exogenously expressing human GLP-1R, cAMP by HTRF, 10 min at 37 °C, Method C1, mean, n = 3 (2: n = 6), read-out: EC50 (GLP-1R potency); for Potency (%), percentage of potency compared to GLP-1-NH2: from EC50 in HEK293 GLP-1R cAMP assay
Protocol: as §1, §2, §3, §4, §5, §6, §7, §8, §9

[4] = mouse plasma diluted 1/1 with PBS, mouse plasma/PBS pH 7.4 (1/1), 5 µM, 37 °C, acetonitrile quench, LC-MS extracted ion chromatogram, MP1 for 2-8, MP2 for 9-11, MP3 for 12-14, mean, n = 3, read-out: Mouse plasma t1/2 (converted)
[5] = read-out: EC50 (GLP-1R potency), Table S1

Sequence of GLP-1R (P43220 24-463): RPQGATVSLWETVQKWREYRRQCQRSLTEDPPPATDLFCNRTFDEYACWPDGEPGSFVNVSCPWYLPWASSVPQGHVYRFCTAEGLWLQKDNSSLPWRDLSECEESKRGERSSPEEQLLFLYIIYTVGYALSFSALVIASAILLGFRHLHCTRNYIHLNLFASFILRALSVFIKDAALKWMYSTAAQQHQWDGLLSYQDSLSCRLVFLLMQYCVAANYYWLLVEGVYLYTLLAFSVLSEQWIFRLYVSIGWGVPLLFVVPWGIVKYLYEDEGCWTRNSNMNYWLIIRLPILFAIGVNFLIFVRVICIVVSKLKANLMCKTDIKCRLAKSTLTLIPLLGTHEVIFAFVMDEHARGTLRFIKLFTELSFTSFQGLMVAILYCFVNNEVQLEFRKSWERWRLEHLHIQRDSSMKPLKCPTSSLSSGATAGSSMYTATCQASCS

| Potency (%), Table S1 [1] [%] | half-life at 5 µM ([2]; mouse, plasma, pH 7.4) [min] | half-life at 5 µM [2, 4] [min] | EC50 [1, 5] [nM] | loss in potency relative to 3 (fold) [1] [fold] | EC50 [3] [nM] | Potency (%), percentage of potency compared to GLP-1-NH2 [3] [%] | Structure (SMILES) | EC50 [1] [nM] |
| --- | --- | --- | --- | --- | --- | --- | --- | --- |
| 42 | – | – | – | – | – | – | CC[C@H](C)[C@H](NC(=O)[C@H](Cc1ccccc1)NC(=O)[C@H](CCC(=O)O)NC(=O)[C@H](CCCCN)NC(=O)[C@H](C)NC(=O)[C@H](C)NC(=O)[C@H](CCC(N)=O)NC(=O)CNC(=O)[C@H](CCC(=O)O)NC(=O)[C@H](CC(C)C)NC(=O)[C@H](Cc1ccc(O)cc1)NC(=O)[C@H](CO)NC(=O)[C@H](CO)NC(=O)[C@@H](NC(=O)[C@H](CC(=O)O)NC(=O)[C@H](CO)NC(=O)[C@@H](NC(=O)[C@H](Cc1ccccc1)NC(=O)[C@@H](NC(=O)CNC(=O)[C@H](CCC(=O)O)NC(=O)CNC(=O)[C@@H](N)Cc1c[nH]cn1)[C@@H](C)O)[C@@H](C)O)C(C)C)C(=O)N[C@@H](C)C(=O)N[C@@H](Cc1c[nH]c2ccccc12)C(=O)N[C@@H](CC(C)C)C(=O)N[C@H](C(=O)N[C@@H](CCCCN)C(=O)NCC(=O)N[C@@H](CCCNC(=N)N)C(=O)NCC(N)=O)C(C)C [S12, reference compound] | – |
| – | 8.4 | – | – | – | – | – | CC[C@H](C)[C@H](NC(=O)[C@H](Cc1ccccc1)NC(=O)[C@H](CCC(=O)O)NC(=O)[C@H](CCCCN)NC(=O)[C@H](C)NC(=O)[C@H](C)NC(=O)[C@H](CCC(N)=O)NC(=O)CNC(=O)[C@H](CCC(=O)O)NC(=O)[C@H](CC(C)C)NC(=O)[C@H](Cc1ccc(O)cc1)NC(=O)[C@H](CO)NC(=O)[C@H](CO)NC(=O)[C@@H](NC(=O)[C@H](CC(=O)O)NC(=O)[C@H](CO)NC(=O)[C@@H](NC(=O)[C@H](Cc1ccccc1)NC(=O)[C@@H](NC(=O)CNC(=O)[C@H](CCC(=O)O)NC(=O)[C@H](C)NC(=O)[C@@H](N)Cc1cnc[nH]1)[C@@H](C)O)[C@@H](C)O)C(C)C)C(=O)N[C@@H](C)C(=O)N[C@@H](Cc1c[nH]c2ccccc12)C(=O)N[C@@H](CC(C)C)C(=O)N[C@H](C(=O)N[C@@H](CCCCN)C(=O)NCC(=O)N[C@@H](CCCNC(=N)N)C(=O)NCC(N)=O)C(C)C [compound 2, GLP-1-NH2, reference compound] | – |
| – | – | 13.8 | – | – | – | – | CC[C@H](C)[C@H](NC(=O)[C@H](Cc1ccccc1)NC(=O)[C@H](CCC(=O)O)NC(=O)[C@H](CCCCN)NC(=O)[C@H](C)NC(=O)[C@H](C)NC(=O)[C@H](CCC(N)=O)NC(=O)CNC(=O)[C@H](CCC(=O)O)NC(=O)[C@H](CC(C)C)NC(=O)[C@H](Cc1ccc(O)cc1)NC(=O)[C@H](CO)NC(=O)[C@H](CO)NC(=O)[C@@H](NC(=O)[C@H](CC(=O)O)NC(=O)[C@H](CO)NC(=O)[C@@H](NC(=O)[C@H](Cc1ccccc1)NC(=O)[C@@H](NC(=O)CNC(=O)[C@H](CCC(=O)O)NC(=O)CC[C@H](C)NC(=O)[C@@H](N)Cc1c[nH]cn1)[C@@H](C)O)[C@@H](C)O)C(C)C)C(=O)N[C@@H](C)C(=O)N[C@@H](Cc1c[nH]c2ccccc12)C(=O)N[C@@H](CC(C)C)C(=O)N[C@H](C(=O)N[C@@H](CCCCN)C(=O)NCC(=O)N[C@@H](CCCNC(=N)N)C(=O)NCC(N)=O)C(C)C [compound 4] | – |
| 13 | – | 12.6 | 0.8 | – | – | – | CC[C@H](C)[C@H](NC(=O)[C@H](Cc1ccccc1)NC(=O)[C@H](CCC(=O)O)NC(=O)[C@H](CCCCN)NC(=O)[C@H](C)NC(=O)[C@H](C)NC(=O)[C@H](CCC(N)=O)NC(=O)CNC(=O)[C@H](CCC(=O)O)NC(=O)[C@H](CC(C)C)NC(=O)[C@H](Cc1ccc(O)cc1)NC(=O)[C@H](CO)NC(=O)[C@H](CO)NC(=O)[C@@H](NC(=O)[C@H](CC(=O)O)NC(=O)[C@H](CO)NC(=O)[C@@H](NC(=O)[C@H](Cc1ccccc1)NC(=O)[C@@H](NC(=O)CNC(=O)[C@H](CCC(=O)O)NC(=O)OC[C@H](C)NC(=O)[C@@H](N)Cc1c[nH]cn1)[C@@H](C)O)[C@@H](C)O)C(C)C)C(=O)N[C@@H](C)C(=O)N[C@@H](Cc1c[nH]c2ccccc12)C(=O)N[C@@H](CC(C)C)C(=O)N[C@H](C(=O)N[C@@H](CCCCN)C(=O)NCC(=O)N[C@@H](CCCNC(=N)N)C(=O)NCC(N)=O)C(C)C [compound 5] | – |
| 3 | – | 22.2 | 3.4 | 24 | 0.012 | 25 | CC[C@H](C)[C@H](NC(=O)[C@H](Cc1ccccc1)NC(=O)[C@H](CCC(=O)O)NC(=O)[C@H](CCCCN)NC(=O)[C@H](C)NC(=O)[C@H](C)NC(=O)[C@H](CCC(N)=O)NC(=O)CNC(=O)[C@H](CCC(=O)O)NC(=O)[C@H](CC(C)C)NC(=O)[C@H](Cc1ccc(O)cc1)NC(=O)[C@H](CO)NC(=O)[C@H](CO)NC(=O)[C@@H](NC(=O)[C@H](CC(=O)O)NC(=O)[C@H](CO)NC(=O)[C@@H](NC(=O)[C@H](Cc1ccccc1)NC(=O)[C@@H](NC(=O)CNC(=O)[C@H](CCC(=O)O)NC(=O)NC(C)CNC(=O)[C@@H](N)Cc1c[nH]cn1)[C@@H](C)O)[C@@H](C)O)C(C)C)C(=O)N[C@@H](C)C(=O)N[C@@H](Cc1c[nH]c2ccccc12)C(=O)N[C@@H](CC(C)C)C(=O)N[C@H](C(=O)N[C@@H](CCCCN)C(=O)NCC(=O)N[C@@H](CCCNC(=N)N)C(=O)NCC(N)=O)C(C)C (stereo partly shown) [compound 6] | – |
| 13 | – | 13.2 | 0.8 | 5 | 0.0053 | 59 | CC[C@H](C)[C@H](NC(=O)[C@H](Cc1ccccc1)NC(=O)[C@H](CCC(=O)O)NC(=O)[C@H](CCCCN)NC(=O)[C@H](C)NC(=O)[C@H](C)NC(=O)[C@H](CCC(N)=O)NC(=O)CNC(=O)[C@H](CCC(=O)O)NC(=O)[C@H](CC(C)C)NC(=O)[C@H](Cc1ccc(O)cc1)NC(=O)[C@H](CO)NC(=O)[C@H](CO)NC(=O)[C@@H](NC(=O)[C@H](CC(=O)O)NC(=O)[C@H](CO)NC(=O)[C@@H](NC(=O)[C@H](Cc1ccccc1)NC(=O)[C@@H](NC(=O)CNC(=O)[C@H](CCC(=O)O)NC(=O)NCCNC(=O)[C@@H](N)Cc1c[nH]cn1)[C@@H](C)O)[C@@H](C)O)C(C)C)C(=O)N[C@@H](C)C(=O)N[C@@H](Cc1c[nH]c2ccccc12)C(=O)N[C@@H](CC(C)C)C(=O)N[C@H](C(=O)N[C@@H](CCCCN)C(=O)NCC(=O)N[C@@H](CCCNC(=N)N)C(=O)NCC(N)=O)C(C)C [compound 7] | – |
| < 0.01 | – | 18 | > 10000 | > 1000 | 2.12 | – | CC[C@H](C)[C@H](NC(=O)[C@H](Cc1ccccc1)NC(=O)[C@H](CCC(=O)O)NC(=O)[C@H](CCCCN)NC(=O)[C@H](C)NC(=O)[C@H](C)NC(=O)[C@H](CCC(N)=O)NC(=O)CNC(=O)[C@H](CCC(=O)O)NC(=O)[C@H](CC(C)C)NC(=O)[C@H](Cc1ccc(O)cc1)NC(=O)[C@H](CO)NC(=O)[C@H](CO)NC(=O)[C@@H](NC(=O)[C@H](CC(=O)O)NC(=O)[C@H](CO)NC(=O)[C@@H](NC(=O)[C@H](Cc1ccccc1)NC(=O)[C@@H](NC(=O)CNC(=O)[C@H](CCC(=O)O)NC(=O)NC[C@@H](NC(=O)[C@@H](N)Cc1c[nH]cn1)C(C)C)[C@@H](C)O)[C@@H](C)O)C(C)C)C(=O)N[C@@H](C)C(=O)N[C@@H](Cc1c[nH]c2ccccc12)C(=O)N[C@@H](CC(C)C)C(=O)N[C@H](C(=O)N[C@@H](CCCCN)C(=O)NCC(=O)N[C@@H](CCCNC(=N)N)C(=O)NCC(N)=O)C(C)C [compound 8] | – |

| Structure (SMILES) | Potency (%), Table S1 [1] [%] | half-life at 5 µM ([2]; mouse, plasma, pH 7.4) [min] | half-life at 5 µM [2, 4] [min] | EC50 [1, 5] [nM] | loss in potency relative to 3 (fold) [1] [fold] | EC50 [3] [nM] | Potency (%), percentage of potency compared to GLP-1-NH2 [3] [%] | EC50 [1] [nM] |
| --- | --- | --- | --- | --- | --- | --- | --- | --- |
| CC[C@H](C)[C@H](NC(=O)[C@H](Cc1ccccc1)NC(=O)[C@H](CCC(=O)O)NC(=O)[C@H](CCCCN)NC(=O)[C@H](C)NC(=O)[C@H](C)NC(=O)[C@H](CCC(N)=O)NC(=O)CNC(=O)[C@H](CCC(=O)O)NC(=O)[C@H](CC(C)C)NC(=O)[C@H](Cc1ccc(O)cc1)NC(=O)[C@H](CO)NC(=O)[C@H](CO)NC(=O)[C@@H](NC(=O)[C@H](CC(=O)O)NC(=O)[C@H](CO)NC(=O)[C@@H](NC(=O)[C@H](Cc1ccccc1)NC(=O)[C@@H](NC(=O)CNC(=O)[C@H](CCC(=O)O)NC(=O)NC[C@H](Cc1c[nH]c2ccccc12)NC(=O)[C@@H](N)Cc1c[nH]cn1)[C@@H](C)O)[C@@H](C)O)C(C)C)C(=O)N[C@@H](C)C(=O)N[C@@H](Cc1c[nH]c2ccccc12)C(=O)N[C@@H](CC(C)C)C(=O)N[C@H](C(=O)N[C@@H](CCCCN)C(=O)NCC(=O)N[C@@H](CCCNC(=N)N)C(=O)NCC(N)=O)C(C)C [S11] | 5 | – | – | – | – | – | – | 2.2 |
